In publication PMC9994261 (Cell, 2023):

Tests used:
[1] = type: in vitro ADME, human
Experimental: The metabolic stability of test compounds was determined as described.[57]^,[58] Incubation and experimental conditions with human hepatic microsomal fractions (purchased from BD Gentest as a pooled batch from 6 donors) were as follows: microsomal proteins, 1 mg/mL; bovine serum albumin, 1 mg/mL; substrate, 5 μM; incubation duration, 20 min; cytochrome P-450 monooxygenases (CYPs) and flavin containing monooxygenases (FMOs) cofactor, 1 mM NADPH. Enzyme activity was stopped with 1 volume of acetonitrile. […] For each test compound and for each microsomal preparation, three incubations were prepared: absolute reference in buffer (without enzyme material, i.e., microsomes); incubation without NADPH cofactor (with microsomal fractions); and incubation with NADPH (with microsomal fractions). For most compounds, biotransformation, as observed in hepatic microsomal fractions in the presence of the NADPH cofactor, consists of oxidative reactions catalyzed by either CYPs or FMOs. In these conditions, the percentage of total metabolism, which corresponds to oxidative metabolism, was determined as follows: [% total metabolism] ≈ [% oxidative metabolism] = [unchanged compound (UC) peak area − NADPH UC peak area + NADPH] × 100%, where NADPH corresponds to the enzyme cofactor for oxidation reactions catalyzed by either CYP or FMO.

[2] = type: in vitro ADME
Mtb Erdman = assay: Mouse model of chronic TB; type: in vivo; details: 300 mg/kg oral once daily
[3] = pH 2, 50% acetonitrile/water
in vivo = details: male, Swiss, mouse, po; for AUC: oral 30 mg/kg

CON=C1CC(C)OC(OC2C(C)CC(C)(OC(=O)NC(C)(C)CNS(=O)(=O)c3ccccc3)C(=O)C(C)C(OC(=O)CC(C)C)C(C)C(C(C)COC3OC(C)C(O)C(OC)C3OC)OC(=O)C(C)C(OC3CC(C)N(C)CC(C)O3)C2C)C1O (stereo not shown) [SEQ-9]
Metabolic stability in human liver microsomes (% metabolized compound after 20 min) ([1]; 20 min incubation): 10%
Metabolic stability in human liver microsomes (% metabolized compound after 20 min), (K) ([1]; in presence of ketoconazole CYP3A inhibitor (K)): 0(K) %
Metabolic stability in human liver microsomes (% metabolized compound after 20 min), (Q) ([1]; in presence of quinidine CYP2D6 inhibitor (Q)): /10(Q) %
Metabolic degradation/clearance from human liver microsomes [2]: 0.03 mL/h/10^6 hepatocytes
log CFU reduction compared with pre-treatment CFU (Mtb Erdman): 1.7 log CFU
Chemical stability: t/12@pH 2 [3]: 48 h
bioavailability (in vivo): 23%
AUC(0-t) (in vivo; 10 mg/kg, pH 4): 1100 ng·h/mL
Cmax (in vivo; 10 mg/kg, pH 4): 140 ng/mL
half-life (in vivo; 10 mg/kg, pH 4, Lung t1/2, mouse po 10 mg/kg, PEG200/Tween80/Citrate Buffer 100mM pH4 (70/5/25)): 4.5 h
half-life (in vivo; 10 mg/kg, pH 4, Plasma t1/2, mouse po 10 mg/kg, PEG200/Tween80/Citrate Buffer 100mM pH4 (70/5/25)): 3 h
Kp (in vivo; 30 mg/kg): 19
AUC (in vivo; 30 mg/kg, AUC in lung @30 mg/kg, lung): 120000 ng·h/mL
AUC (in vivo; 30 mg/kg, AUC in plasma @30 mg/kg, plasma): 6300 ng·h/mL
AUC(0-t) (in vivo; 100 mg/kg): 22000 ng·h/mL
Cmax (in vivo; 100 mg/kg): 2130 ng/mL
half-life (in vivo; 100 mg/kg, Lung t1/2, mouse po 100 mg/kg, Lipidic formulation CremophorRH40/Capryol90/Mygliol812N (10/20/70) diluted in ½ water): 4.5 h
half-life (in vivo; 100 mg/kg, Plasma t1/2, mouse po 100 mg/kg, Lipidic formulation CremophorRH40/Capryol90/Mygliol812N (10/20/70) diluted in ½ water): 4.2 h
AUC(0-t) (in vivo; 100 mg/kg, pH 4): 11000 ng·h/mL
Cmax (in vivo; 100 mg/kg, pH 4): 1390 ng/mL
half-life (in vivo; 100 mg/kg, pH 4, Lung t1/2, mouse po 100 mg/kg, PEG200/Tween80/Citrate Buffer 100mM pH4 (70/5/25)): 6.5 h
half-life (in vivo; 100 mg/kg, pH 4, Plasma t1/2, mouse po 100 mg/kg, PEG200/Tween80/Citrate Buffer 100mM pH4 (70/5/25)): 4.4 h
AUC(0-t) (in vivo; 300 mg/kg, pH 4): 21000 ng·h/mL
Cmax (in vivo; 300 mg/kg, pH 4): 3110 ng/mL
half-life (in vivo; 300 mg/kg, pH 4, Lung t1/2, mouse po 300 mg/kg, PEG200/Tween80/Citrate Buffer 100mM pH4 (70/5/25)): 11 h
